Test results from patent US12338456B2, “Method for increasing the specific production rate of eukaryotic cells” (Hoffmann-La Roche Inc., priority 2014, dated 2025).
“Also recorded” adds a separate entry of the source.

How the values were obtained:
[1] = tested on: recombinant CHO-K1 cell line, called clone 1, expressing a humanized monoclonal antibody; assay: CHO fed-batch cultivation with para-, ortho- or meta-Tyr supplementation under Phe non-limitation conditions; format: cell-based, Chinese Hamster
Experimental: (§1) For all cell culture experiments a recombinant CHO-K1 cell line, called clone 1, expressing a humanized monoclonal antibody was used. The recombinant CHO-K1 cell line was generated using an L-methionine sulfoximine sensitive CHO-K1 host cell line (Lonza, Cologne, Germany). The cells were cultivated in protein free, chemically defined CD-CHO medium (Life Technologies, Darmstadt, Germany) supplemented with 50 μM L-methionine sulfoximine (Sigma Aldrich, Munich, Germany) during seed train cultivation. Seed train cultivation was performed in shake flasks using a humidified incubator, 7% CO2, and 37° C. setting. The cells were splitted every three to four days for subcultivation and culture expansion. For all experiments, cells with identical age in culture (appr. 21 generations) until start of the experiment were used.
(§2) All supplementation experiments were performed using shake flask cultivation systems, chemically defined CD-CHO medium without the selection pressure L-methionine sulfoximine and two appropriate serial continuous applied feeds (feed 1 and feed 2). Recombinant CHO-K1 cells producing a humanized monoclonal antibody were inoculated with 3×10^5 viable cells/mL and cultured for 14 days. CD-CHO base medium was sterile supplemented before inoculation with 0.1 mM, 0.3 mM or 0.4 mM of either ortho-Tyr, meta-Tyr or para-Tyr. Control cultivation with no supplementation of ortho-Tyr, meta-Tyr or para-Tyr was used as reference. Phenylalanine (Phe) non-limitation conditions were realized by increasing concentration of Phe in feed 2.
(§3) For analysis of viable and total cell densities an automated Cedex HiRes system (Roche Diagnostics, Mannheim, Germany) was used. Discrimination of viable and total cell densities were evaluated using the trypan blue exclusion staining method and analyzing more than 10 pictures per sample and day according to the manufacturer's specifications. Viable cell density (VCD) and cell viability were calculated as described in equation 1 (Equ 1) and equation 2 (Equ 2), respectively. Viable cell density=NTrypan blue negative×(10^5 viable cells/ml) (Equ 1) Cell viability=NTrypan blue negative/(NTrypan blue negative+NTrypan blue positive cells)×100% (Equ 2)
(§4) As indicator for overall biomass generation in the process a cumulative cell time integral (CTI) was calculated as followed (Equ 3). Cell time integral=Σ(0.5×(VCDn−1+VCDn)×(tn−tn−1))×(10^5 viable cells×d/ml) (Equ 3)
(§5) Product titer war either quantified by a Cobas Integra 400 plus system (Roche, Mannheim, Germany) according to the manufacture's protocol or by PorosA HPLC method as described previously (Zeck et al. 2012). The overall specific productivity qP was calculated for the analysis of cell production capacity according to equation 4. qP=(Titern−Titern−1)/(CTIn−CTIn−1)×(pg/(viable cell×d)) (Equ 4) Determination of Peptide Sequence Variants and Identification of Meta- and Ortho-Tyr Sequence Variants with Synthetic Peptides
In a second approach, the role of meta- and ortho-Tyr supplementation under Phe non-limitation conditions in CHO fed-batch cultivations was analyzed. For that, the amount of Phe in feed 2 was increased to prevent Phe limitation (FIG. 6).

[2] = tested on: recombinant CHO-K1 cell line, called clone 1, expressing a humanized monoclonal antibody; assay: CHO fed-batch cultivation with para-, ortho- or meta-Tyr supplementation under Phe limitation conditions; format: cell-based, Chinese Hamster
Experimental: as §1, §2, §3, §4
Lactate dehydrogenase (LDH) activity in the cell-free supernatant was analyzed using a Cobas Integra 400 plus system (Roche Diagnostics, Mannheim, Germany).
as §5
In concentration screens, a 50% reduction of the […] reduction capacity of CHO cells was observed when supplemented with 0.5 mM meta-Tyr (Gurer-Orhan et al., (2006)). No data or concentration have been reported for ortho-Tyr supplementation in cell cultures to date. Using a dose-dependent cultivation approach, it was aimed to determine the relevance and tolerable concentrations of meta-Tyr and ortho-Tyr on CHO cell growth performance. For this, a CHO cultivation model described in material and methods was supplemented with either 0.1 mM, 0.3 mM or 0.4 mM para-Tyr, ortho-Tyr or meta-Tyr. We used the standard cultivation process with no supplementation as reference, following so-called “control” or “positive control”. Here, Phe will go into limitation by day 10/11.

CHO cells = conditions: cited from earlier work
[3] = 0.1 mM, 0.3 mM or 0.4 mM supplementation

Row | Structure (SMILES) | product titer (product yield) [1] | product concentration (overall productivity, product yield) [2] | final LDH activity in the supernatant ([2]; compared to control, meta-Tyr and para-Tyr supplementation) | cell viability ([2]; day 14) | specific productivity qP (cell-specific product formation rate) [1] | increase of qP compared to control ([1]; 0.1 mM supplementation) | CTI versus other cultures [1, 3] | increase of qP compared to control ([1]; 0.3 mM supplementation) | increase of qP compared to control ([1]; 0.4 mM supplementation) | specific productivity qP (cell-specific product formation rate) [2] | increase of qP compared to control ([2]; 0.1 mM supplementation) | cumulative CTI (cell time integral, overall biomass production) [2, 3] | maximal VCD versus other cultures [2, 3] | increase of qP compared to control ([2]; 0.3 mM supplementation) | increase of qP compared to control ([2]; 0.4 mM supplementation) | impact on cell viability ([2]; fed-batch CHO cultivation) | specific productivity qP (cell-specific product formation rate) ([2]; listed as Meta-Tyr) | reduction of the MTX reduction capacity of CHO cells (CHO cells; 0.5 mM meta-Tyr) [%] | cell cytotoxicity (CHO cells; meta-Tyr supplementation of CHO cells)
1 | NC(Cc1ccccc1O)C(=O)O (stereo not drawn) [ortho-Tyr, ortho-tyrosine, reference compound] | does not alter product yield | does not alter product yield | higher final LDH activity in the supernatant | less than 60% |  |  |  |  |  |  |  |  |  |  |  |  |  |  | 
2 | N[C@@H](Cc1cccc(O)c1)C(=O)O [meta-Tyr, meta-tyrosine] | does not alter product yield | does not alter product yield |  |  | overall higher specific productivity qP; also recorded: increases cell-specific product formation rate qP | +3% | dose dependent reduction in CTI | +26% | +28% | overall higher specific productivity qP | +5% | decreased cumulative CTI | dose dependent reduced maximal VCD | +26% | +36% | no significant impact | increases cell-specific product formation rate qP | 50 | dose-dependent cell cytotoxicity
